Experimental data as given in patent US8309718B2, “4-pyrazolyl-N-arylpyrimidin-2-amines and 4-pyrazolyl-N-heteroarylpyrimidin-2-amines as janus kinase inhibitors” (Incyte Corporation, priority 2007, dated 2012).

Target: T1, human JAK2 (Homo sapiens, UniProt O60674)
T1 construct: JAK2 (a.a. 828-1132); His tag (N); made in house; host or cells: insect cells (baculovirus)
Test: In vitro JAK kinase assay (HTRF, phosphorylation of biotinylated peptide)
Assay type: biochemical
Details: catalytic domain a.a. 828-1132, 30 μM ATP, 500 nM peptide, room temperature 1 hr; read-out: JAK-2 IC50
Summary of the method: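 IC50 from HTRF detection (Eu-Py20 antibody, SA-APC) of biotinylated-peptide phosphorylation (500 nM), run 1 h at RT. Enzyme: N-His human JAK2 kinase domain a.a. 828-1132 from insect cells; ATP 30 μM; buffer 50 mM Tris pH 7.8 with NaCl, DTT, BSA.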

T1 sequence (O60674 828-1132): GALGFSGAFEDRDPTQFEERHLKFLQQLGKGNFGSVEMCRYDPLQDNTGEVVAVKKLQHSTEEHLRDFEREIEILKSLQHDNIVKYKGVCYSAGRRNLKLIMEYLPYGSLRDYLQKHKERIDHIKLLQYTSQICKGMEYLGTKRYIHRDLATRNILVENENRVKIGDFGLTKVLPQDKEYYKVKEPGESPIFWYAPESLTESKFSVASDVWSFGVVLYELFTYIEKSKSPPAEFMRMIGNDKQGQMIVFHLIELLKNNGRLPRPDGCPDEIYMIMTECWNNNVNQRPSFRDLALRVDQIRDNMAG

IC50, < 100 nM:
CCS(=O)(=O)N1CCC(CC(CC#N)n2cc(-c3nc(Nc4ccc(N5CCOCC5)cc4)ncc3C)cn2)CC1 (racemic) [Example 48, 4-(1-(ethylsulfonyl)piperidin-4-yl)-3-(4-(5-methyl-2-(4-morpholinophenylamino)pyrimidin-4-yl)-1H-pyrazol-1-yl)butanenitrile]
CCS(=O)(=O)N1CCC(CC(CC#N)n2cc(-c3nc(Nc4ccc(-n5cccn5)cc4)ncc3C)cn2)CC1 (racemic) [Example 49, 3-(4-(2-(4-(1H-pyrazol-1-yl)phenylamino)-5-methylpyrimidin-4-yl)-1H-pyrazol-1-yl)-4-(1-(ethylsulfonyl)piperidin-4-yl)butanenitrile]
CCS(=O)(=O)N1CCC(CC(CC#N)n2cc(-c3nc(Nc4ccccc4)ncc3C)cn2)CC1 (racemic) [Example 50, 4-(1-(ethylsulfonyl)piperidin-4-yl)-3-(4-(5-methyl-2-(phenylamino)pyrimidin-4-yl)-1H-pyrazol-1-yl)butanenitrile]
CC(=O)Nc1ccc(Nc2ncc(C)c(-c3cnn(C(CC#N)CC4CCN(S(=O)(=O)c5ccn(C)n5)CC4)c3)n2)cc1 (racemic) [Example 51, N-(4-(4-(1-(1-cyano-3-(1-(1-methyl-1H-pyrazol-3-ylsulfonyl)piperidin-4-yl)propan-2-yl)-1H-pyrazol-4-yl)-5-methylpyrimidin-2-ylamino)phenyl)acetamide]
CCS(=O)(=O)N1CCC(CC(CC#N)n2cc(-c3nc(Nc4ccc(C(=O)N(C)C)cc4)ncc3C)cn2)CC1 (racemic) [Example 52, 4-(4-(1-(1-cyano-3-(1-(ethylsulfonyl)piperidin-4-yl)propan-2-yl)-1H-pyrazol-4-yl)-5-methylpyrimidin-2-ylamino)-N,N-dimethylbenzamide]
Cc1cnc(Nc2ccc(C(N)=O)cc2)nc1-c1cnn(C(CC#N)CC2CCN(S(=O)(=O)c3ccn(C)n3)CC2)c1 (racemic) [Example 53, 4-(4-(1-(1-cyano-3-(1-(1-methyl-1H-pyrazol-3-ylsulfonyl)piperidin-4-yl)propan-2-yl)-1H-pyrazol-4-yl)-5-methylpyrimidin-2-ylamino)benzamide]
CS(=O)(=O)N1CCN(c2ccc(Nc3nccc(-c4cnn(C(CC#N)C5CCCC5)c4)n3)cc2)CC1 (racemic) [Example 54, 3-cyclopentyl-3-(4-(2-(4-(4-(methylsulfonyl)piperazin-1-yl)phenylamino)pyrimidin-4-yl)-1H-pyrazol-1-yl)propanenitrile]
Cn1ccc(S(=O)(=O)N2CCC(CC(CC#N)n3cc(-c4ccnc(Nc5ccc(N6CCOCC6)cc5)n4)cn3)CC2)n1 (racemic) [Example 55, 4-(1-(1-methyl-1H-pyrazol-3-ylsulfonyl)piperidin-4-yl)-3-(4-(2-(4-morpholinophenylamino)pyrimidin-4-yl)-1H-pyrazol-1-yl)butanenitrile]
Cn1ccc(S(=O)(=O)N2CCC(CC(CC#N)n3cc(-c4ccnc(Nc5ccc(-n6cccn6)cc5)n4)cn3)CC2)n1 (racemic) [Example 56, 3-(4-(2-(4-(1H-pyrazol-1-yl)phenylamino)pyrimidin-4-yl)-1H-pyrazol-1-yl)-4-(1-(1-methyl-1H-pyrazol-3-ylsulfonyl)piperidin-4-yl)butanenitrile]
Cn1ccc(S(=O)(=O)N2CCC(CC(CC#N)n3cc(-c4ccnc(Nc5ccccc5)n4)cn3)CC2)n1 (racemic) [Example 57, 4-(1-(1-methyl-1H-pyrazol-3-ylsulfonyl)piperidin-4-yl)-3-(4-(2-(phenylamino)pyrimidin-4-yl)-1H-pyrazol-1-yl)butanenitrile]
CN(C)C(=O)c1ccc(Nc2nccc(-c3cnn(C(CC#N)CC4CCN(S(=O)(=O)c5ccn(C)n5)CC4)c3)n2)cc1 (racemic) [Example 58, 4-(4-(1-(1-cyano-3-(1-(1-methyl-1H-pyrazol-3-ylsulfonyl)piperidin-4-yl)propan-2-yl)-1H-pyrazol-4-yl)pyrimidin-2-ylamino)-N,N-dimethylbenzamide]
CN(C)C(=O)c1ccc(Nc2nccc(-c3cnn(C(CC#N)CC4CCN(C(=O)c5ccc(F)cc5F)CC4)c3)n2)cc1 (racemic) [Example 59, 4-(4-(1-(1-cyano-3-(1-(2,4-difluorobenzoyl)piperidin-4-yl)propan-2-yl)-1H-pyrazol-4-yl)pyrimidin-2-ylamino)-N,N-dimethylbenzamide]
CC(=O)Nc1ccc(Nc2nccc(-c3cnn(C(CC#N)CC4CCN(C(=O)c5ccc(F)cc5F)CC4)c3)n2)cc1 (racemic) [Example 60, N-(4-(4-(1-(1-cyano-3-(1-(2,4-difluorobenzoyl)piperidin-4-yl)propan-2-yl)-1H-pyrazol-4-yl)pyrimidin-2-ylamino)phenyl)acetamide]
Cc1cnc(Nc2ccc(N3CCOCC3)cc2)nc1-c1cnn(C(CC#N)CC2CCN(S(=O)(=O)c3ccn(C)n3)CC2)c1 (racemic) [Example 61, 4-(1-(1-methyl-1H-pyrazol-3-ylsulfonyl)piperidin-4-yl)-3-(4-(5-methyl-2-(4-morpholinophenylamino)pyrimidin-4-yl)-1H-pyrazol-1-yl)butanenitrile]
Cc1cnc(Nc2ccc(N3CCOCC3)cc2)nc1-c1cnn(C(CC#N)CC2CCN(C(=O)c3ccc(F)cc3F)CC2)c1 (racemic) [Example 62, 4-(1-(2,4-difluorobenzoyl)piperidin-4-yl)-3-(4-(5-methyl-2-(4-morpholinophenylamino)pyrimidin-4-yl)-1H-pyrazol-1-yl)butanenitrile]
Cc1cnc(Nc2ccc(-n3cccn3)cc2)nc1-c1cnn(C(CC#N)CC2CCN(S(=O)(=O)c3ccn(C)n3)CC2)c1 (racemic) [Example 63, 3-(4-(2-(4-(1H-pyrazol-1-yl)phenylamino)-5-methylpyrimidin-4-yl)-1H-pyrazol-1-yl)-4-(1-(1-methyl-1H-pyrazol-3-ylsulfonyl)piperidin-4-yl)butanenitrile]
Cc1cnc(Nc2ccc(-n3cccn3)cc2)nc1-c1cnn(C(CC#N)CC2CCN(C(=O)c3ccc(F)cc3F)CC2)c1 (racemic) [Example 64, 3-(4-(2-(4-(1H-pyrazol-1-yl)phenylamino)-5-methylpyrimidin-4-yl)-1H-pyrazol-1-yl)-4-(1-(2,4-difluorobenzoyl)piperidin-4-yl)butanenitrile]
Cc1cnc(Nc2ccccc2)nc1-c1cnn(C(CC#N)CC2CCN(S(=O)(=O)c3ccn(C)n3)CC2)c1 (racemic) [Example 65, 4-(1-(1-methyl-1H-pyrazol-3-ylsulfonyl)piperidin-4-yl)-3-(4-(5-methyl-2-(phenylamino)pyrimidin-4-yl)-1H-pyrazol-1-yl)butanenitrile]
Cc1cnc(Nc2ccccc2)nc1-c1cnn(C(CC#N)CC2CCN(C(=O)c3ccc(F)cc3F)CC2)c1 (racemic) [Example 66, 4-(1-(2,4-difluorobenzoyl)piperidin-4-yl)-3-(4-(5-methyl-2-(phenylamino)pyrimidin-4-yl)-1H-pyrazol-1-yl)butanenitrile]
Cc1cnc(Nc2ccc(C(=O)N(C)C)cc2)nc1-c1cnn(C(CC#N)CC2CCN(S(=O)(=O)c3ccn(C)n3)CC2)c1 (racemic) [Example 67, 4-(4-(1-(1-cyano-3-(1-(1-methyl-1H-pyrazol-3-ylsulfonyl)piperidin-4-yl)propan-2-yl)-1H-pyrazol-4-yl)-5-methylpyrimidin-2-ylamino)-N,N-dimethylbenzamide]
Cc1cnc(Nc2ccc(C(=O)N(C)C)cc2)nc1-c1cnn(C(CC#N)CC2CCN(C(=O)c3ccc(F)cc3F)CC2)c1 (racemic) [Example 68, 4-(4-(1-(1-cyano-3-(1-(2,4-difluorobenzoyl)piperidin-4-yl)propan-2-yl)-1H-pyrazol-4-yl)-5-methylpyrimidin-2-ylamino)-N,N-dimethylbenzamide]
CC(=O)Nc1ccc(Nc2ncc(C)c(-c3cnn(C(CC#N)CC4CCN(C(=O)c5ccc(F)cc5F)CC4)c3)n2)cc1 (racemic) [Example 69, N-(4-(4-(1-(1-cyano-3-(1-(2,4-difluorobenzoyl)piperidin-4-yl)propan-2-yl)-1H-pyrazol-4-yl)-5-methylpyrimidin-2-ylamino)phenyl)acetamide]
Cc1cnc(Nc2ccc(C(N)=O)cc2)nc1-c1cnn(C(CC#N)C2CCCC2)c1 (racemic) [Example 70, 4-(4-(1-(2-cyano-1-cyclopentylethyl)-1H-pyrazol-4-yl)-5-methylpyrimidin-2-ylamino)benzamide]
Cc1cnc(Nc2ccc(-n3cccn3)cc2)nc1-c1cnn(C(CC#N)C2CCCC2)c1 (racemic) [Example 71, 3-(4-(2-(4-(1H-pyrazol-1-yl)phenylamino)-5-methylpyrimidin-4-yl)-1H-pyrazol-1-yl)-3-cyclopentylpropanenitrile]
Cc1cnc(Nc2ccc(N3CCOCC3)cc2)nc1-c1cnn(C(CC#N)C2CCCC2)c1 (racemic) [Example 72, 3-cyclopentyl-3-(4-(5-methyl-2-(4-morpholinophenylamino)pyrimidin-4-yl)-1H-pyrazol-1-yl)propanenitrile]
Cc1cnc(Nc2ccccc2)nc1-c1cnn(C(CC#N)C2CCCC2)c1 (racemic) [Example 73, 3-cyclopentyl-3-(4-(5-methyl-2-(phenylamino)pyrimidin-4-yl)-1H-pyrazol-1-yl)propanenitrile]
Cc1cnc(Nc2ccc(-c3cnco3)cc2)nc1-c1cnn(C(CC#N)C2CCCC2)c1 (racemic) [Example 74, 3-cyclopentyl-3-(4-(5-methyl-2-(4-(oxazol-5-yl)phenylamino)pyrimidin-4-yl)-1H-pyrazol-1-yl)propanenitrile]
